Measurements published in patent US11643415B1, “Rabeximod compounds” (CYXONE AB, priority 2021, dated 2023).
Values after ≈ are worked out from the molar mass of the structure shown. Structures can show the parent of a compound that is named as a salt. Marks after values point to notes of the source that are not given here.

Experiments:
[1] = Quantitative (thermodynamic) solubility determination, shake-flask, LCMS against calibration line; assay type: physicochemical; details: for Solubility in water: room temperature, suspensions stirred for 18 h, LCMS; for solubility at 4 h: 25 °C, thermodynamic from solid
Description: The thermodynamic solubility of Rabeximod free base (Form 1) was determined in 3 different USP buffers (50 mM) ranging from pH 1.2 to pH 7.4 and in water (Exp. ID: QSA21-24) by the shake-flask method at 25° C. (
Table ). Approximately 30 mg was added to approximately 1 ml of the selected buffer and the resulting suspension was equilibrated at RT for 4 hours under continuous stirring. After 15 min and after 4 h of stirring, the pH of the solution was recorded. Upon completion of the equilibration time, the suspensions were centrifuged. The solution was filtered and diluted before LCMS analysis to determine the API concentration in solution. The residue was dried under vacuum and the obtained dried solids were analyzed by XRPD. A standard LC calibration curve was prepared, and the diluted mother liquors were measured to determine the API concentration.
The solubility of the freebase (Form 1) and salts prepared by scale-up was determined in water at room temperature. Suspensions were stirred for 18 h after which the liquid phase was isolated and measured by LCMS against a calibration line. The solids were dried and measured by XRPD to determine the solid form. The lowest solubility was determined for the freebase (Form 1). The signal was lower than the calibration line and therefore the solubility was determined to be <0.005 mg/ml. […] The experimental details are described in table 5.
Table 5. Experimental details and results of the solubility determination for Rabeximod free base Form 1) as well as salt Mes1 in water and in 3 buffers with pH range 1.2-7.4. The pH of the solutions after 15 minutes and 4 hours are reported. The solubility was determined after 4h equilibration by measuring the liquid phase with LCMS against a calibration line.

[2] = Pharmacokinetic characterization after i.v. and p.o. administration to male CD-1 mice; assay type: in vivo; details: for CL as % of mouse liver blood flow: liver blood flow 120 ml/min/kg
Description: IV formulations were prepared on the day of dosing. The formulations were prepared by weighing the compound into brown glass vial; on the day of dosing ClinOleic 20% intravenous fat emulsion ([…], Tamro) was added into tubes (1,5 mg/mL in 20% ClinOleic). Formulations were homogenized 5 minutes before dosing. IV formulations were administered within 5 hours after preparation.
PO formulations were prepared day before administration. The formulations were prepared by formulating the test items in PO vehicle (6 mg/ml in 0.45% (v/v) Tween 80-0.11% (w/v) sodium carboxy methylcellulose (CMC) in tap water). The suspensions were mixed with vortex and stored refrigerated (+4° C.) over night. On the day of dosing formulations were homogenized 15 minutes before dosing.
Naïve animals were used in the study (see Table 6). They were housed in individually ventilated (IVC)-cages in groups of six mice. The cages were provided with aspen bedding (4HP and PM90L, Tapvei, Estonia) and paper strands (Sizzlenest, Datesand, UK) as nesting material, and a paper pulp cabin and red polycarbonate cylinder (Datesand, UK) as cage enrichment. The temperature (22±2° C.), humidity (55±10%) and air exchange rate (75 times/h) of the IVC-cages and 12/12-h light/dark cycle (500 lux lighting on at 6 a.m., 1.5 lux lighting […].) of the animal holding room were automatically controlled and maintained. Animals were allowed to acclimatize to the site for at least five days prior to the study. Animals had ad libitum access to food (SDS diets, RM1 (E) 801002, Special Diets Services, UK) and tap water at all times, and their welfare was assured with daily observations.
Study compounds were administered via the specified route and the times of dosing and blood sampling were recorded. Within 30 min following the sampling, the blood was centrifuged for plasma separation (room temperature; 10 min; 2700 G). The plasma samples were transferred into plastic tubes, frozen and stored at −20° C. until analysis. Clinical signs and general behavior of the animals were recorded, when necessary.
The pharmacokinetic parameters were calculated using Phoenix 64 (Build 6.4.0.768) WinNonlin (version 6.4) software, using non-compartmental methods (NCA). Nominal doses were used for all animals. The terminal phase half-life (T1/2) was calculated by least-squares regression analysis of the terminal linear part of the log concentration—time curve. The area under the plasma concentration—time curve (AUC) was determined with the linear trapezoidal rule for increasing values and log trapezoidal rule for decreasing values up to the last measurable concentration (AUC0-last), and extrapolation of the terminal elimination phase to infinity was used when possible; the following criteria were used:
Minimum of 3 points (not including Cmax) used to calculate lambda (with R^2 adjusted >0.85)
T1/2 shorter than the time-span used to calculate lambda
The maximum plasma concentration (Cmax) and the time to reach Cmax (tmax) were derived directly from the plasma concentration data.

[3] = Accelerated aging conditions (AAC), solid form remeasured by XRPD; assay type: physicochemical; details: 3 days at 40° C. and 75% RH
Description: All solids were exposed to AAC (40° C./75% RH for 3 days) and remeasured by HT-XRPD. After that, 750 μl of a selected solvent was added. The vials were transferred to a Crystal16™ parallel crystallizer and the suspensions were stirred at 750 rpm at 50° C. for 18h after which the suspensions were subjected to centrifugation and the solids were isolated, dried under vacuum (50° C., 5 mbar, 18 h) and analyzed by HT-XRPD. The experimental conditions and results are shown below in Table 1 and Table 2 for the first and second set of experiments, respectively. The obtained XRPD patterns for the crystallinesalts made are shown in FIGS. 1 (HCl), 2 (Mao) and 3 (Mes).
Experimental conditions and results of the hydrochloride and malonic acid salt crystallization experiments. In all experiments, 750 μl of solvent was used. Counterion (Cl) abbreviations denote pure counterions whereas counterions with a number denote novel salt forms. After subjecting suspensions of API:Cl to thermocycles, the solids were isolated, dried (5 mbar, 50° C., 18 h) and analyzed by XRPD. The liquid phases were dried, and the resulting solids were analyzed by XRPD. Most solids were subjected to AAC (40° C., 75% RH, 3 days) and remeasured by XRPD.

[4] = Qualitative solubility determination in water at room temperature (visual, water added until dissolved); assay type: physicochemical; details: for Solubility in water: RT, estimated by adding water to the salt until dissolved; for Dissolution in water (in words): room temperature
Description: The solubility of the salts in water at RT was estimated by adding water to the salt until the salt dissolved. […] From the TGMS data it was estimated whether the salts are stochiometric hydrates or not.
The solubility of a selection of salts from the salt screen was estimated at room temperature in water. To approximately 2 mg of salt, solvent aliquots were added in steps of 50 μl until the material was dissolved as observed visually by the naked eye.

[5] = Dynamic vapor sorption (hygroscopicity / moisture sorption); assay type: physicochemical
Description: Differences in hygroscopicity (moisture uptake) of the various forms of a solid material provided a measure of their relative stability at increasing relative humidity. Moisture sorption isotherms of small samples were obtained using a DVS-1 system from Surface Measurement Systems (London, UK); this instrument is suitable for use with a few milligrams of sample, with an accuracy of 0.1 μg. The relative humidity was varied during sorption-desorption-sorption (40-95-0-40% RH) at a constant temperature of 25° C. Weight equilibration per step was set at dm/dt <0.0002 mg/min for a minimum of 1 hour or maximum of 6 hours. Afterwards the sample was measured by HT-XRPD.
The hygroscopicity was classified according to the European Pharmacopoeia Hygroscopicity classification. Water uptake percentage at 25° C./80%RH (24h) is:
Change in mass <0.2%—Non-hygroscopic
Change in mass >2% & <15%—Moderately hygroscopic
Change in mass >15%—Very hygroscopic

[6] = i.v., 3.00 mg/kg, male CD1 mice
[7] = p.o., 30.0 mg/kg, male CD1 mice
[8] = male, CD-1, mouse, plasma, po, 30 mg/kg, male CD1 mice
[9] = male, CD-1, mouse, plasma, iv, 3 mg/kg, male CD1 mice

Row | Compound | AUC0-inf [2, 6] [ng·h/mL] | T1/2 [2, 6] [h] | Time of peak plasma concentration (tmax) [2, 6] [h] | Vss [2, 6] [L/kg] | clearance [2, 6] [mL/min/kg] | mean C0 [2, 6] [ng/mL] | mean Cmax [2, 6] [ng/mL] | CL as % of mouse liver blood flow ([2]; i.v., 3.00 mg/kg) [%] | AUC0-last [2, 7] | Time of peak plasma concentration (tmax) [2, 7] [h] | mean Cmax [2, 7] [ng/mL] | Salt form after AAC [3] | Solubility in water [4] [µg/mL] | further results
1 | Cc1cc2nc3c4cc(Cl)ccc4n(CC(=O)NCCN(C)C)c3nc2cc1C [Rabeximod HCl] | 2220 | 8.43 | 0.0833 | 14.2 | 22.6 | 600 | 454 | 18.8 | 13 700 h*ng/ml | 4.00 | 893 | HCl | 2000 to 5700 | Solubility ([1]; medium water, listed as HCI (TCS160)): 5.45 mg/mL; Solubility in water ([1]; listed as HCl1): 5500 µg/mL
2 | Cc1cc2nc3c4cc(Cl)ccc4n(CC(=O)NCCN(C)C)c3nc2cc1C [Rabeximod Mao] | 1870 | 8.43 | 0.0833 | 16.9 | 26.8 | 390 | 355 | 22.3 | 11 400 h*ng/ml | 0.17 | 1140 | Mao | 5500 to 10200 | Solubility ([1]; medium water, listed as Mao (TCS161)): 5.26 mg/mL (≈ 12800 µM); Solubility in water ([1]; listed as Mao1): 5300 µg/mL (≈ 12900 µM)
3 | Cc1cc2nc3c4cc(Cl)ccc4n(CC(=O)NCCN(C)C)c3nc2cc1C [Rabeximod Mes] | 2320 | 9.80 | 0.0833 | 15.9 | 21.5 | 507 | 383 | 17.9 | 11 600 h*ng/ml | 2.00 | 707 | Mes | 13300 | Solubility ([1]; medium HCl, pH buffer 1.2, 4 h equilibration, listed as Mes (TCS35)): 0.014 mg/mL (≈ 34.2 µM); Solubility ([1]; medium phosphate buffer, pH buffer 6.5, 4 h equilibration, listed as Mes (TCS35)): 0.042 mg/mL (≈ 102 µM); Solubility ([1]; medium water, listed as Mes (TCS35)): 13.26 mg/mL (≈ 32300 µM); solubility at 4 h ([1]; phosphate buffer, pH 7.4, aqueous buffer, medium phosphate buffer, pH buffer 7.4, 4 h equilibration): 3 µg/mL (≈ 7.32 µM); Solubility in water ([1]; listed as Mes1): 13300 µg/mL (≈ 32400 µM); half-life [2, 8]: 8.93 h; Water uptake ([5]; DVS, 25° C.): 12.2%; Form after DVS ([5]; sorption-desorption-sorption 40-95-0-40% RH, 25° C., HT-XRPD): Mes1
4 | Cc1cc2nc3c4cc(Cl)ccc4n(CC(=O)NCCN(C)C)c3nc2cc1C [Rabeximod, 9-Chloro-2,3-dimethyl-6-(N,N-dimethylaminoethylamino-2-oxoethyl)-6H-indolo-[2,3-b]quinoxaline] | 681 |  |  | 49.4 | 73.4 |  | 150 | 61.2 |  | 4.00 |  |  |  | solubility at 4 h ([1]; HCl buffer, pH 1.2, simulated gastric fluid, medium HCl, pH buffer 1.2, 4 h equilibration): 13 µg/mL (≈ 31.7 µM); Solubility ([1]; medium phosphate buffer, pH buffer 6.5, 4 h equilibration, listed as Form 1 (SM)): 0.005* mg/ml; Solubility ([1]; medium phosphate buffer, pH buffer 7.4, 4 h equilibration, listed as Form 1 (SM)): <LOD; Solubility ([1]; medium water, listed as Form 1 (SM)): <0.005 mg/mL; Solubility in water ([1]; listed as freebase): < 5 µg/mL; Tmax ([2]; male, CD-1, mouse, plasma, iv, 3 mg/kg, i.v., 3.00 mg/kg, male CD1 mice, read-out: Time of peak plasma concentration (tmax)): 5 min; C0 [2, 9]: 351 ng/mL; half-life [2, 9]: 8.99 h; AUC(0-t) [2, 8]: 8330 ng·h/mL; Cmax [2, 8]: 728 ng/mL; Dissolution in water (in words) [4]: close to insoluble in water; Dissolution in water (in words) ([4]; listed as freebase): no sign of dissolution; Physical stability upon exposure to relative humidity ([5]; relative humidity values between 0-95%): remained physically stable; Hygroscopicity classification (European Pharmacopoeia) ([5]; water uptake at 25° C./80%RH): slightly hygroscopic
